Measured values reported in patent publication US9364448B2, “Nitisinone for treatment of oculocutaneous/ocular albinism and for increasing pigmentation” (The United States of America, as represented by the …, priority 2010, dated 2016).
Entries after “also recorded” stand apart in the source; their conditions may differ.

Experiments:
[1] = test system: C57BL/6J-Tyr^c-2J/c-2J mice (OCA1a model); experiment: Coat and ocular pigmentation, clinical examination, Tyr^c-2J/c-2J mice; format: in vivo, mouse; conditions: one month
Procedure: Animal Husbandry and Clinical Examination. C57BL/6J mice (Stock #000664), C57BL/6JTyr^c-2J/c-2J mice (Stock #000058, MGI ID#1855985), and C57BL/6Tyr^c-h/c-h (Stock #000104, MGI ID#1855979) were obtained from the Jackson Laboratory (Bar Harbor, Me.). Mice were housed according to the institutional Animal Review Board standards with a 14 hour light/10 hour dark cycle. These studies conformed to the principles for laboratory animal research outlined by the Animal Welfare Act (NIH/HHS) and the ARVO Statement for the Use of Animals in Ophthalmic and Vision Research and were approved by the Institutional Animal Care and Use Committee of the National Eye Institute. Clinical examination and imaging of the anterior segment of mice were performed on gently-restrained, awake mice using a Haag-Streit BQ slit lamp and Imaging Module IM900® software (Haag-Streit, Inc., Mason, Ohio). […]
At the beginning of the study, baseline plasma concentrations of tyrosine, coat color (gross and microscopic), anterior segment pigment, and posterior segment pigment were documented for each mouse prior to initiating experiments. […] It is known that a possible side effect of NTBC treatment is corneal irritation, which is monitored daily. […] At the end of four weeks time, plasma tyrosine concentrations were assessed in both treated and control animals. […]

[2] = test system: melanocytes from a patient with OCA-1B; experiment: Human melanocyte melanin assay, OCA-1B patient; format: cell-based; conditions: 1 mM tyrosine, p=0.0025, not to wild-type level
Procedure: Human melanocyte culture and melanin assay. Human melanocytes were established from skin punch biopsies. Skin specimens were washed with PBS then treated with 0.25% trypsin-EDTA (Gibco 25200) for about 2 hours followed by vigorous vortexing to separate the epidermis. The epidermis was sectioned and attached to scored patches on the bottom of a 6-well polystyrene culture dish before being covered with melanocyte media. About 1000 ml of melanocyte media was made from 950 ml Ham's F10 (Gibco 1550), 25 ml FBS, 5 ug bFGF (Sigma F0291), 10 μg endothelin (Sigma, E7764, Sigma Chemicals, St. Louis, Mo.), 7.5 mg IBMX (Sigma 17018), 30 μg cholera toxin (Sigma C8052), 3.3 μg TPA (Sigma P8139), 10 ml PenStrepGlutamine, 1 ml fungizone and the media was 0.22 μm filtered.
Melanocytes were plated on 6 well dishes and grown to confluency. Melanin assays were run in triplicate by supplementing three wells per plate with 1 mM tyrosine (Sigma T8566), using the remaining 3 wells as untreated controls. Treatment time was approximately one week. […] The OD475 was measured and converted to melanin content via a standard curve using synthetic melanin (Sigma M0418). The data were normalized to protein content, determined using a bicinchoninic (BCA) assay kit (BioRad, Inc., Hercules, Calif.). Differences between treated and untreated measurements were analyzed with a two-tailed unpaired t-test. […]

O=C1CCCC(=O)C1C(=O)c1ccc(C(F)(F)F)cc1[N+](=O)[O-] [NTBC, 2-(-2-nitro-4 trifluoromethylbenzoyl)-1,3 cyclohexanedione]
Phenotypic changes ([1]; 1 mg/kg every other day by oral gavage): no phenotypic changes
Coat color, fundus pigmentation, iris transillumination (coat and ocular pigmentation) ([1]; 4 mg/kg orally every other day, 4 mg/kg): no difference; also recorded: grossly unchanged

N[C@@H](Cc1ccc(O)cc1)C(=O)O [tyrosine]
Pigmentation [2]: significantly increased pigmentation
